Values after ≈ are worked out from the molar mass of the structure shown. Peptide text beside a SMILES is read from it.
Key:
[1] = Reverse phase HPLC retention time (hydrophobicity); assay type: physicochemical; design: unit not given beside the values; conditions: C18 column (300 Å pore size, 5 μm particle size), linear gradient acetonitrile/water, higher Rt taken as more hydrophobic
Source text: Materials: LPS of E. coli 0111:B4, FITC-LPS of E. coli 055:B5, acrylamide, NPN (1-N-phenylnaphthylamine) were purchased from Sigma (Saint Louis, MO, USA). All bacterial strains were obtained from the American Type Culture Collection (Manassas, VA, USA). Designed peptides were synthesized commercially by GL Biochem (Shanghai, China) and further purified by a reverse phase HPLC (Waters), using a C18 column (300 Å pore size, 5 μm particle size). The dimeric variants of β-boomerang lipopeptides were treated with 20% DMSO for 18 hours and the oxidized peptides were further purified by HPLC. A linear gradient of acetonitrile/water mixture was used for the purification and fractions eluting with higher purity were collected and freeze-dried.
(§1) In addition, incorporation of disulfide bridges in AMPs may stabilize conformations and enhance cationicity and hydrophobicity required for enhanced activity. […] Residue Ile10 was chosen for Cys replacement since this residue is located at the exposed face of the β-strand of the YI12WF structure (Figure 1).

[2] = test system: E. coli cells; test: Zeta potential measurements; assay type: cell-based
Procedure: Zeta potential measurements: The zeta potential measurements were carried out on a Zetasizer Nano ZS (Malvern Instruments, Worcestershire, UK) equipped with a 633 nm He lasers. Mid-log phase grown bacterial cells were diluted to an OD600 of 0.2 and a basal measurement in the absence of peptides was acquired in disposable zeta cells with gold electrodes. Increasing concentrations of the designed peptides were then added to the cells and the measurements were made. A total of five measurements of 100 runs each were carried out for all dilutions.

[3] = test system: outer membrane of E. coli cells; test: Outer membrane permeability assay (NPN dye); assay type: cell-based; conditions: E. coli OD600 0.5, 10 μM NPN
Procedure: Outer membrane permeability assay: Outer membrane of Gram bacteria acts as permeability barrier for hydrophobic antibacterial compounds. […] E. coli cells were grown to mid logarithmic phase and diluted to an OD600nm of 0.5 in 10 mM sodium phosphate buffer, pH 7.0. The excitation was set at 350 nm and emission at 390–450 nm. NPN was added to the diluted cells at the concentration of 10 μM and a basal fluorescence was recorded followed by the addition of increasing concentration of peptides.

[4] = test system: FITC-LPS micelles; test: Dissociation of FITC-LPS; design: species or system E. coli 055:B5; conditions: 500 nM FITC-LPS, increasing peptide, excitation 480 nm, emission 515 nm
Procedure: Dissociation of FITC-LPS: LPS molecules form micellar aggregates in water. The competency of the peptides to dissociate LPS micelles were studied using FITC conjugated LPS. In this method, blank fluorescence of 500 nM of FITC-LPS was recorded followed by the addition of increasing concentrations of peptides. The excitation was set at 480 nm and emission at 500–550 nm.

[5] = test system: LPS micelles; test: Dynamic light scattering of LPS micelles; design: species or system E. coli 0111:B4; conditions: DLS, 0.5 μM LPS, LPS:peptide 1:4; LPS alone 814 nm
Procedure: Dynamic light scattering measurements: LPS forms micelles of large sizes, which with the addition of increasing concentration of peptides, dissociates to smaller sizes. DLS measurements were made for 0.5 μM LPS and then with LPS: Peptide ratios of 1:2 and 1:4. The scattering was measured with Dynamic Light Scattering software provided with the instrument (Brookhaven Instruments Corp., Holtsville, NY, USA) and the scattering data was analyzed with CONTIN method.

[6] = test system: LPS micelles; test: Isothermal titration calorimetry; assay type: binding, E. coli 0111:B4; conditions: lack of saturation
Procedure: Isothermal titration calorimetry: Binding of designed peptides with LPS micelles was determined using isothermal titration calorimetry in VP-ITC micro calorimeter (Microcal Inc, Northampton, MA, USA). Peptides and LPS samples were dissolved in 10 mM phosphate buffer, pH 7.0 and filtered. LPS at a concentration of 10 μM was loaded into the sample cell and the reference cell was filled with the same buffer. The syringe was filled with 1mM peptide solution. Typically 30 injections of 3.5 μL of the peptides were made into the sample cell at 25 °C. Sample cell was stirred continuously at 300 rpm. Raw data were obtained and analyzed using single site binding model in Microcal Origin 5.0 software. Association constant (Ka) and enthalpy change (ΔH) were directly determined from ITC profiles. Dissociation constant was calculated from Kd = 1/Ka. ΔG and TΔS were estimated from the fundamental equations of thermodynamics, ΔG = −RTlnKa and TΔS = (ΔH − ΔG), respectively.

[7] = aqueous solution for NMR
Source text: as §1
The solution conformations of YI13C, C4YI13C peptides were examined in free solution using two-dimensional ^1H-^1H NOESY and TOCSY experiments.

[8] = test system: B.subtilis (Lab strain); test: Antibacterial assay (MIC); assay type: cell-based; conditions: 10 mM phosphate buffer pH 6.8, 3 h 37 °C, streaked on Mueller-Hinton agar
Procedure: (§2) Antibacterial assay: The minimum inhibitory concentration (MIC) of the designed peptides was determined against four Gram-negative strains (E. coli, P. aeruginosa ATCC 27853, K. pneumoniae ATCC 13883, S. enterica ATCC 14028) and four Gram-positive strains (B. subtilis, S. aureus ATCC 25923, S. pyogenes ATCC 19615 and E. faecalis ATCC 29212). In brief, mid logarithmic phase of overnight grown bacterial cultures were obtained in LB broth and adjusted to OD600 0.2 in 10 mM phosphate buffer, pH 6.8. About 50 μL of these cells were added to equal volume of designed peptides at two-fold dilutions in 96-well sterile polypropylene plates followed by incubation for 3hrs at 37 °C. Aliquots of the above titrated wells were streaked onto Mueller-Hinton agar plates and the concentration at which no visible bacterial growth was observed considered as the MIC value of the peptide.

[9] = test system: E.coli (Lab strain); test: Antibacterial assay (MIC); assay type: cell-based; conditions: 10 mM phosphate buffer pH 6.8, 3 h 37 °C, streaked on Mueller-Hinton agar, no visible growth
Procedure: as §2

[10] = test system: E.faecalis (ATCC 29212); test: Antibacterial assay (MIC); assay type: cell-based; conditions: 10 mM phosphate buffer pH 6.8, 3 h 37 °C, streaked on Mueller-Hinton agar
Procedure: as §2

[11] = test system: K. pneumoniae (ATCC 13883); test: Antibacterial assay (MIC); assay type: cell-based; conditions: 10 mM phosphate buffer pH 6.8, 3 h 37 °C, streaked on Mueller-Hinton agar
Procedure: as §2

[12] = test system: P.aeruginosa (ATCC 27853); test: Antibacterial assay (MIC); assay type: cell-based; conditions: 10 mM phosphate buffer pH 6.8, 3 h 37 °C, streaked on Mueller-Hinton agar
Procedure: as §2

[13] = test system: S.aureus (ATCC 25923); test: Antibacterial assay (MIC); assay type: cell-based; conditions: 10 mM phosphate buffer pH 6.8, 3 h 37 °C, streaked on Mueller-Hinton agar
Procedure: as §2

[14] = test system: S.enterica (ATCC 14028); test: Antibacterial assay (MIC); assay type: cell-based; conditions: 10 mM phosphate buffer pH 6.8, 3 h 37 °C, streaked on Mueller-Hinton agar
Procedure: as §2

[15] = test system: S.pyogenes (ATCC 19615); test: Antibacterial assay (MIC); assay type: cell-based; conditions: 10 mM phosphate buffer pH 6.8, 3 h 37 °C, streaked on Mueller-Hinton agar
Procedure: as §2

[16] = test system: red blood cells; conditions: mouse RBC ~4% (v/v) in PBS pH 7.0, 1 h, OD540, 1% Triton-X = positive control
Procedure: Hemolytic assay: Blood was collected from healthy mice in a tube containing EDTA. Cells with EDTA were centrifuged at 800 g for 10 min, to remove the buffy plasma coat layer, and washed three times in PBS (35 mM phosphate buffer, 150 mM NaCl, pH 7.0). 50 μL of RBC solution was added to equal volume of two-fold dilution of the peptides in 96-well micro titer plates and incubated for one hour. The final erythrocyte concentration estimated to be ~4% (v/v). After one hour, the mixture was centrifuged and the release of hemoglobin in the supernatant was determined spectrophotometrically at OD540. Buffer and 1% Triton-X in the place of peptides used as negative control and positive control, respectively. The percentage of hemolysis was calculated using the following method: Percentage of hemolysis = (OD peptide − OD buffer)/(OD Triton-X-OD buffer) × 100

[17] = test system: LPS (endotoxin); test: LPS neutralization assay (chromogenic LAL kit); assay type: biochemical
Procedure: LPS neutralization assay: LAL chromogenic kit (QCL 100 Cambrex, Walkersville, MD, USA) was used to determine endotoxin neutralization of the designed peptides following protocol of the vendor. LPS in Gram negative bacteria activates a proenzyme in limulus amoebocyte lysate (LAL). This activated enzyme in turn catalytically release a colored product pNA from the colorless substrate Ac-Ile-Glu-Ala-Arg-pNA which is detected spectrophotometrically at OD410. All peptides were dissolved in the pyrogen-free water supplied with the kit and pH was adjusted to 7.0 with 1N HCl or 1N NaOH (which is prepared in pyrogen-free water). The increasing concentrations of the peptides were incubated with three different concentrations of endotoxins, i.e., at 0.4, 0.8 and 1.0 endotoxin units (EU) in a total volume of 50 μL for 30 minutes at 37 °C. About 50 μL of LAL reagent was added to peptide-LPS complex and further incubated for 10 minutes followed by addition of 100 μL substrate. After incubation of six minutes for the reaction, the release of colored product was recorded at OD410. Water in the place of peptides served as negative control (blank) that is considered as 0% inhibition and percentage of LPS neutralization was calculated by: % of LPS neutralization = [(OD blank − OD peptide)/OD blank] × 100

SMILES: CCCCCCCC(=O)N[C@@H](Cc1ccc(O)cc1)C(=O)N[C@H](C(=O)N[C@@H](CC(C)C)C(=O)N[C@@H](C)C(=O)N[C@@H](CCCCN)C(=O)N[C@@H](CCCNC(=N)N)C(=O)N[C@@H](CCCCN)C(=O)N[C@@H](CCCNC(=N)N)C(=O)N[C@@H](CCCCN)C(=O)N[C@@H](C)C(=O)N[C@@H](CSSC[C@H](NC(=O)[C@H](C)NC(=O)[C@H](CCCCN)NC(=O)[C@H](CCCNC(=N)N)NC(=O)[C@H](CCCCN)NC(=O)[C@H](CCCNC(=N)N)NC(=O)[C@H](CCCCN)NC(=O)[C@H](C)NC(=O)[C@H](CC(C)C)NC(=O)[C@@H](NC(=O)[C@H](Cc1ccc(O)cc1)NC(=O)CCCCCCC)C(C)C)C(=O)N[C@@H](Cc1ccccc1)C(=O)N[C@H](C(N)=O)[C@@H](C)CC)C(=O)N[C@@H](Cc1ccccc1)C(=O)N[C@H](C(N)=O)[C@@H](C)CC)C(C)C [C8YI13CAA] (HELM PEPTIDE1{[CCCCCCCC(=O)[*:2]].Y.V.L.A.K.R.K.R.K.A.C.F.I.[am]}|PEPTIDE2{[CCCCCCCC(=O)[*:2]].Y.V.L.A.K.R.K.R.K.A.C.F.I.[am]}$PEPTIDE1,PEPTIDE2,12:R3-12:R3$$$V2.0; N-terminus and C-terminus assumed)
- Retention time (Rt) [1]: 32.38
- Change in zeta potential (in words) ([2]; increasing peptide concentrations, E. coli cells): did not show any detectable change in zeta potential
- NPN fluorescence intensity with increasing peptide (in words) [3]: no marked increase in intensity
- FITC fluorescence intensity / dissociation of FITC-LPS (in words) [4]: remained unchanged
- Diameter of LPS aggregates [5]: 630 nm
- Interaction with LPS by ITC (in words) [6]: interacted weakly with LPS
- Solubility for NMR studies (in words) [7]: limited solubility

SMILES: CCCCCCCC(=O)N[C@@H](Cc1ccc(O)cc1)C(=O)N[C@H](C(=O)N[C@@H](CC(C)C)C(=O)N[C@@H](Cc1c[nH]c2ccccc12)C(=O)N[C@@H](CCCCN)C(=O)N[C@@H](CCCNC(=N)N)C(=O)N[C@@H](CCCCN)C(=O)N[C@@H](CCCNC(=N)N)C(=O)N[C@@H](CCCCN)C(=O)N[C@@H](Cc1ccccc1)C(=O)N[C@@H](CSSC[C@H](NC(=O)[C@H](Cc1ccccc1)NC(=O)[C@H](CCCCN)NC(=O)[C@H](CCCNC(=N)N)NC(=O)[C@H](CCCCN)NC(=O)[C@H](CCCNC(=N)N)NC(=O)[C@H](CCCCN)NC(=O)[C@H](Cc1c[nH]c2ccccc12)NC(=O)[C@H](CC(C)C)NC(=O)[C@@H](NC(=O)[C@H](Cc1ccc(O)cc1)NC(=O)CCCCCCC)C(C)C)C(=O)N[C@@H](Cc1ccccc1)C(=O)N[C@H](C(N)=O)[C@@H](C)CC)C(=O)N[C@@H](Cc1ccccc1)C(=O)N[C@H](C(N)=O)[C@@H](C)CC)C(C)C [C8YI13C] (HELM PEPTIDE1{[CCCCCCCC(=O)[*:2]].Y.V.L.W.K.R.K.R.K.F.C.F.I.[am]}|PEPTIDE2{[CCCCCCCC(=O)[*:2]].Y.V.L.W.K.R.K.R.K.F.C.F.I.[am]}$PEPTIDE1,PEPTIDE2,12:R3-12:R3$$$V2.0)
- Retention time (Rt) [1]: 37.40
- Minimum inhibitory concentration (MIC) [8]: 5 µM (≈ 19.1 µg/mL)
- Minimum inhibitory concentration (MIC) [9]: 3 µM (≈ 11.5 µg/mL)
- Minimum inhibitory concentration (MIC) [10]: 4 µM (≈ 15.3 µg/mL)
- Minimum inhibitory concentration (MIC) [11]: 12 µM (≈ 45.9 µg/mL)
- Minimum inhibitory concentration (MIC) [12]: 5 µM (≈ 19.1 µg/mL)
- Minimum inhibitory concentration (MIC) [13]: 5 µM (≈ 19.1 µg/mL)
- Minimum inhibitory concentration (MIC) [14]: 50 µM (≈ 191 µg/mL)
- Minimum inhibitory concentration (MIC) [15]: 50 µM (≈ 191 µg/mL)
- % of hemolysis at 50 μM peptide concentration [16]: 21.5%
- LPS neutralization ([17]; 0.4 EU endotoxin, 1.0 μM peptide, 30 min 37 °C, OD410): around 60%
- LPS neutralization ([17]; at increased peptide concentration, different LPS concentrations (0.4, 0.8, 1.0 EU), dose dependent): 80%
- Zeta potential of E. coli cells after peptide addition ([2]; 4 μM peptide, cells without peptide about −20.0 mV, OD600 0.2): ~+24.0 mV
- NPN fluorescence intensity with increasing peptide (in words) [3]: continues to increase
- Diameter of LPS aggregates [5]: 385 nm
- Solubility for NMR studies (in words) [7]: limited solubility
